From patent US11241507B2, “Near-infrared chemiluminescent probes for in-vivo imaging” (RAMOT AT TEL-AVIV UNIVERSITY LTD., priority 2017, dated 2022)

What was measured:
[1] = Chemiluminescence properties of NIR luminophores under physiological conditions; assay type: physicochemical; conditions: for ΦCL (chemiluminescence efficiency) / λ maxCL (maximal chemiluminescence emission): physiological conditions
Method: All reactions requiring anhydrous conditions were performed under an argon atmosphere. All reactions were carried out at room temperature unless stated otherwise. Chemicals and solvents were either A.R. grade or purified by standard techniques. TLC: silica gel plates Merck 60 F254: compounds were visualized by irradiation with UV light. Column chromatography (FC): silica gel Merck 60 (particle size 0.040-0.063 mm), eluent given in parentheses. RP-HPLC: C18 5u, 250×4.6 mm, eluent given in parentheses. Preparative RP-HPLC: C18 5u, 250×21 mm, eluent given in parentheses. ^1H-NMR spectra were recorded using Bruker Avance operated at 400 MHz. ^13C-NMR spectra were recorded using Bruker Avance operated at 100 MHz. Chemical shifts were reported in ppm on the δ scale relative to a residual solvent (CDCl3: δ=7.26 for ^1H-NMR and 77.16 for ^13C-NMR, DMSO-d6: δ=2.50 for ^1H-NMR and 39.52 for ^13C-NMR). Mass spectra were measured on Waters Xevo TQD. Fluorescence and chemiluminescence were recorded on Molecular Devices Spectramax i3x. Fluorescence quantum yield was determined using Hamamatsu Quantaurus-QY. All reagents, including salts and solvents, were purchased from Sigma-Aldrich. Light irradiation for photochemical reactions: LED PAR38 lamp (19 W, 3000K).
Next, we incubated our luminophores under physiological conditions and evaluated their properties. […] As expected, the chemiluminescence emission spectra correlate with the fluorescence spectra of their corresponding decomposition benzoate esters products. […] This difference is attributed to the reduced pKa of Luminophore 2, which accelerate the generation of enriched phenolate population that spontaneously undergoes the chemiexcitation process. The chemiluminescence efficiency of Luminophores 1 and 2 was calculated to be 0.82% and 1.12% respectively. These outstanding results encouraged us to investigate the imaging features of our NIR luminophores to serve as a reporter both in-vitro and in-vivo bioassays.

[2] = target: T1, β-galactosidase in HEK293 cells transfected with the LacZ gene (Escherichia coli, UniProt P00722); assay: Chemiluminescence imaging of HEK293-LacZ versus HEK293-wt cells; assay type: cell-based
T1 construct: expressed in transfected cells; host or cells: HEK293 (HEK293-LacZ)
Method: FIGS. 1A-1C show the chemiluminescence kinetic profiles of probes 1a [10 μM] in PBS, pH 7.4, in the presence and absence of 1.5 units/mL β-galactosidase at 37° C. (1A); chemiluminescence imaging of Probe 1a [5 μM] in HEK293 cells (1B); and quantification of signal intensities evolving from HEK293 cells (1C).
Images were obtained following 20 minutes incubation with cell culture medium containing Probe 3a (5 μM), and were recorded on BioSpace Lab PhotonIMAGER™.
(§1) The spectral performance of Probe 1a was evaluated by measuring the chemiluminescent signal over time while its incubation took place under physiological conditions in the presence and absence of β-galactosidase (FIG. 1A). […] The emission spectra of 1a overlaps with its parent Luminophore 1 as expected. Next, we investigated the feasibility of Probe 1a to image the over expression of endogenous β-galactosidase in HEK293 cells transfected with the LacZ gene. We incubated Probe 1a with HEK293-LacZ and HEK293-wt cells. […] The chemiluminescence signal was quantified as depicted in FIG. 1C.
In order to investigate the feasibility of Probe 3a to monitor the enzymatic activity of β-galactosidase in vitro, the probe [1 μM] was incubated for 30 minutes with transfected HEK293-LacZ cell that overexpress the enzyme β-galactosidase, and under the same conditions with HEK293-wt cell as a control. The chemiluminescent signal was collected for 4 hours from the samples and quantified as depicts in FIG. 3.

[3] = system: β-galactosidase; assay: Chemiluminescence kinetic profile of probes in presence and absence of β-galactosidase; assay type: biochemical; conditions: 37° C.
Method: FIGS. […] (1A); chemiluminescence imaging of Probe 1a [5 μM] in HEK293 cells (1B); and quantification of signal intensities evolving from HEK293 cells (1C).
as §1
The study in which the feasibility of Probe 1a to image the over expression of endogenous β-galactosidase in HEK293 cells transfected with the LacZ gene was repeated using Probe 3a, corresponding to Luminophore 3 wherein the phenol is masked with a β-galactosidase substrate as the responsive protecting group, and a short polyethylene-glycol ester is introduced instead of the […] acid residue, considering that cell permeability is reduced by negatively charged species.

[4] = Chemiluminescence kinetic profile of probe in presence and absence of H2O2; conditions: probe 10 μM in serum, presence vs absence of H2O2 50 μM
Method: (§2) FIGS. 4A-4C show the chemiluminescent kinetic profile of Probe 2a [10 μM] in serum, in the presence and absence of H2O2[50 μM] (4A); in-vivo imaging of endogenous H2O2 in the peritoneal cavity of mice during an LPS-induced inflammatory response, using probes 2a and 2b. Images of mice were recorded on BioSpace Lab PhotonIMAGER™. Group A: 1 mL of 0.1 mg/mL LPS was injected into the peritoneal cavity of mice, followed 4 h later by an IP injection of Probe 2a [100 μM, 100 μL in PBS]. Group B: 1 mL of 0.1 mg/mL LPS was injected into the peritoneal cavity of mice, followed 4 h later by an IP injection of Probe 2b [100 μM, 100 μL in PBS]. Group C: 1 mL PBS 7.4 was injected into the peritoneal cavity of mice, followed 4 h later by an IP injection of Probe 2a [100 μM, 100 μL in PBS 7.4] (4B); and quantification of signal intensities evolved from each group of mice (4C).
At first, we wanted evaluated the ability of Probe 2a to detect H2O2, therefore we incubated Probe 2a in the presence and absence of H2O2 and monitored the emitted light.

[5] = system: endogenous H2O2; assay: In-vivo imaging of endogenous H2O2 in peritoneal cavity of mice, LPS-induced peritonitis
Method: as §2
Since we established that our luminophores can serve as chemiluminescence reporter for in-vitro imaging we wanted to test their ability to image a whole animal. We tested the ability of Probe 2a to detect endogenous H2O2 by using a mouse model peritonitis that was induced by intraperitoneal injection of lipopolysaccharide (LPS). […] Three groups of mice were applied: (A) mice that were treated with LPS followed by the injection of probe 2a; (B) mice that were treated with LPS followed by the injection of Probe 2b; and (C) mice that were treated with vehicle control (PBS 7.4) followed by the injection of Probe 2a.
After 1 minute, a ratio of 19 was observed comparing the signal intensities of LPS treated and non-LPS treated mice which were injected with Probe 2a (groups A and C).

[6] = probe 1 μM, 30 minutes incubation

T1 sequence (P00722 whole entry): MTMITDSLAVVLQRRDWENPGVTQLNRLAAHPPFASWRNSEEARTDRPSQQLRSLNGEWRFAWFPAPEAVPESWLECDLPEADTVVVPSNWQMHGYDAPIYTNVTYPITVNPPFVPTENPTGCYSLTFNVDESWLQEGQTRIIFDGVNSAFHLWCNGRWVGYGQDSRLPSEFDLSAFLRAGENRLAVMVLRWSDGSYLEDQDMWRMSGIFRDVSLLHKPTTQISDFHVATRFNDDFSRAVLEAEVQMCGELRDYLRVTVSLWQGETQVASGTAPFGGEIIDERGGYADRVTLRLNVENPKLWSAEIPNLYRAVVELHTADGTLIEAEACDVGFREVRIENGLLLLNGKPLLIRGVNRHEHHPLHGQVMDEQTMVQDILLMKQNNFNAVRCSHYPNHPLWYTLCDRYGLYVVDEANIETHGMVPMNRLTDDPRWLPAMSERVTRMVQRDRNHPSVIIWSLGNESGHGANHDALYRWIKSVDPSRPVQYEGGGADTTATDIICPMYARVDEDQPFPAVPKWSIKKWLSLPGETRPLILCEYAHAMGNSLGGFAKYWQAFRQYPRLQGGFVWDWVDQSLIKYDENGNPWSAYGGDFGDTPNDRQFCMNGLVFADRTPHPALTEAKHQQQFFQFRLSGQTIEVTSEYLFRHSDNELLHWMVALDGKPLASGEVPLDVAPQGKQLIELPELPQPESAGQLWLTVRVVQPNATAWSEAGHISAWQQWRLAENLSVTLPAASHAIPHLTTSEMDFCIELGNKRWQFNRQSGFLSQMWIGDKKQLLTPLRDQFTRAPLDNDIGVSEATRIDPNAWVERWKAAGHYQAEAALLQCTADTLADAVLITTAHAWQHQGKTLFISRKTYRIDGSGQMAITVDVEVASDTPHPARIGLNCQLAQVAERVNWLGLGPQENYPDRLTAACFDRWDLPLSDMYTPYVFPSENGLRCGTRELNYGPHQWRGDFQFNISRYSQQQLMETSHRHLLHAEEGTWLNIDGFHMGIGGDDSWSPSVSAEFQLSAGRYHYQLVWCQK

Row | SMILES | pKa [1] | ΦCL (chemiluminescence efficiency) [1] [%] | λ maxCL (maximal chemiluminescence emission) [1] [nm] | further results
1 | COC1(c2cc(O)ccc2/C=C/C2=CC(=C(C#N)C#N)c3ccccc3O2)OOC12C1CC3CC(C1)CC2C3 (stereo not drawn) [Luminophore 1] | ~8.8 | 0.82 | 660 | –
2 | COC1(c2cc(O)c(/C=C/C(=O)O)cc2/C=C/C2=CC(=C(C#N)C#N)c3ccccc3O2)OOC12C1CC3CC(C1)CC2C3 (stereo not drawn) [Luminophore 2] | 7.35 | 1.12 | 690 | –
3 | COC1(c2cc(O)c(/C=C/C(=O)O)cc2/C=C/C2=C(C#N)C(=C(C#N)C#N)OC2(C)C)OOC12C1CC3CC(C1)CC2C3 (stereo not drawn) [Luminophore 3] | 7.71 | 0.70 | 670 | –
4 | COC1(c2ccc(/C=C/C3=CC(=C(C#N)C#N)c4ccccc4O3)c(O)c2Cl)OOC12C1CC3CC(C1)CC2C3 (stereo not drawn) [Luminophore 4] | 6.72 | 0.95 | 730 | –
5 | COC1(c2cc(O[C@@H]3OC(CO)[C@H](O)C(O)C3O)ccc2/C=C/C2=CC(=C(C#N)C#N)c3ccccc3O2)OOC12C1CC3CC(C1)CC2C3 (stereo partly drawn) [Probe 1a] | – | – | – | ratio between signal intensities of transfected cells to wild type cells ([2]; HEK293-LacZ vs HEK293-wt, probe 5 μM): 14; chemiluminescent signal in HEK293-LacZ cells ([2]; probe 5 μM): intense chemiluminescent signal; chemiluminescent signal in HEK293-wt cells ([2]; probe 5 μM): negligible chemiluminescent signal; signal-to-noise ratio ([3]; probe 10 μM in PBS pH 7.4, presence vs absence of 1.5 units/mL β-galactosidase): 17
6 | COC1(c2cc(B3OC(C)(C)C(C)(C)O3)c(/C=C/C(=O)O)cc2/C=C/C2=CC(=C(C#N)C#N)c3ccccc3O2)OOC12C1CC3CC(C1)CC2C3 (stereo not drawn) [Probe 2a] | – | – | – | signal-to-noise ratio [4]: 57; chemiluminescence signal right after probe injection ([5]; group A (LPS + Probe 2a) compared with groups B and C): efficient chemiluminescence signal; signal ratio, LPS treated mice injected with Probe 2a vs Probe 2b ([5]; groups A and B, IP probe 100 μM, 100 μL in PBS, 4 h after LPS): 45; ratio of signal intensities, LPS treated vs non-LPS treated mice ([5]; groups A and C, IP probe 100 μM, 100 μL in PBS, 4 h after LPS or PBS, after 1 minute): 19
7 | COCCOCCOCCOCCOC(=O)/C=C/c1cc(/C=C/C2=C(C#N)C(=C(C#N)C#N)OC2(C)C)c(C2(OC)OOC23C2CC4CC(C2)CC3C4)cc1OCc1ccc(O[C@@H]2OC(CO)[C@H](O)[C@H](O)C2O)cc1 (stereo partly drawn) [Probe 3a] | – | – | – | signal ratio between transfected cells to wild type ([2]; HEK293-LacZ vs HEK293-wt, probe 1 μM incubated 30 minutes, signal collected 4 hours): 17; chemiluminescent signal in HEK293-LacZ cells [2, 6]: intense chemiluminescent signal; chemiluminescent signal in HEK293-wt cells [2, 6]: unneglectable chemiluminescent signal; signal-to-noise ratio ([3]; probe 1 μM in PBS (100 mM) 7.4 with 10% serum, presence vs absence of β-galactosidase 1.5 EU/mL): 43
